Entries after “also recorded” stand apart in the source; their conditions may differ. Peptide text beside a SMILES is read from it.

The source of these data is US6962900B2, “Pharmaceutical being used for treating HIV infection, the composition and uses thereof” (priority 2001, dated 2005).

One series has as its target T1, HIV-1 gp160HXB (Human immunodeficiency virus type 1 group M subtype B, UniProt P04578).
T1 construct: expressed in transfected cells; host or cells: 293T cells
Kind of series: cell-cell fusion assay (luciferase reporter, synplasm formation induced by HIV-1 gp160HXB). The series is classed as cell-based.

For another series, the target named is T2, gp41 N-peptide (Human immunodeficiency virus type 1 group M subtype B, UniProt P04578).
T2 construct: The peptide solution containing Fusonex and gp41 N-peptide (35-70) was measured
Kind of series: stability by melting curve (circular dichroism) of peptide complexed with gp41 N-peptide. The series is classed as physicochemical, HIV-1.

For a further series, the system named is HIV. The settings on record: first and second stages of clinical trials; cited from earlier work.

T2 sequence (P04578 546-581): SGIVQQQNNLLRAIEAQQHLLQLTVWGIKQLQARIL
T1 sequence (P04578 512-856): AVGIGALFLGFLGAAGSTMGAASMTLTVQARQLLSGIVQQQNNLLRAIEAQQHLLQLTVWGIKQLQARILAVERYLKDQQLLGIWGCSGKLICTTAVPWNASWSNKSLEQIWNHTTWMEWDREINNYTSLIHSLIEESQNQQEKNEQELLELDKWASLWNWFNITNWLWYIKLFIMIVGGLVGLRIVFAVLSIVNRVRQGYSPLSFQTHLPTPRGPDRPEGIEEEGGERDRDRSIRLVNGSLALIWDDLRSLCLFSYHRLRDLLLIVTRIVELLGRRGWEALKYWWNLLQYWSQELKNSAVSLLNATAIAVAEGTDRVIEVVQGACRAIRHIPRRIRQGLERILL
From the text for HIV-1 gp160HXB: The specific experiment methods are as follows: The T7 promoter was inserted into the pSP64 upstream sequence of the cloning site to assemble a luciferase reporter gene plasmid—Pst7luc. The internal ribozyme entry site (IRES) of encephalomyocarditis virus (CMCV) was linked with the 5′-terminal of luciferase gene as well as the downstream area of T7 promoter. CD4 gene, T7 polymerase gene, and HIV-1 gp160HXB gene were subcloned into the mammalian expression plasmid—PMT3.
In a 10 cm culture dish, the 293T cells were transferred by Calcium Phosphate Method. Equal quantities of gp160HXB gene and T7 polymerase gene were used to transfect the effector cells, and pSP64 and CD4 gene were used to transfect the target cells. The PMT3 plasmid in the absence of gp160HXB or CD4 gene was set as a negative control.
The cells with non-serous DMEM were rinsed, after the DNA precipitate was added. The cells were cultured for 30-40 minutes at 37° C. in 9 ml/dish non-serous DMEM. […]
The solution as a stock solution was put to serial dilution in culture medium before use. […] Two minutes after adding luciferase substrate to the black 96-well culture plate, measure the chemical fluorescence intensity with Spex fluorolog-3 fluorimeter, the emission wavelength being 552 nm and slit breadth being 7 mm. The average and standard deviation were calculated from the three data of each concentration point.
Method for gp41 N-peptide: This experiment determined the stability of a polypeptide by measuring its melting curve at different temperatures. The experiment was carried out on Aviv 62A DS circular dichroism spectrum apparatus. The temperature range for heating peptide solution was from 20° C. to 95° C.

Regarding `CC[C@H](C)[C@H](NC(=O)[C@H](CCC(=O)O)NC(=O)[C@H](CCCNC(=N)N)NC(=O)[C@H](CCC(=O)O)NC(=O)[C@H](Cc1c[nH]c2ccccc12)NC(=O)[C@@H](NC(=O)[C@H](CCC(=O)O)NC(=O)[C@H](Cc1c[nH]c2ccccc12)NC(=O)[C@H](CO)NC(C)=O)[C@@H](C)O)C(=O)N[C@@H](CCC(=O)O)C(=O)N[C@@H](CC(N)=O)C(=O)N[C@@H](Cc1ccc(O)cc1)C(=O)N[C@H](C(=O)N[C@@H](CCCCN)C(=O)N[C@@H](CCC(N)=O)C(=O)N[C@H](C(=O)N[C@@H](Cc1ccc(O)cc1)C(=O)N[C@@H](CCCCN)C(=O)N[C@H](C(=O)N[C@@H](CC(C)C)C(=O)N[C@@H](CCC(=O)O)C(=O)N[C@@H](CCC(=O)O)C(=O)N[C@@H](CO)C(=O)N[C@@H](CCC(N)=O)C(=O)N[C@@H](CCC(=O)O)C(=O)N[C@@H](CCC(N)=O)C(=O)N[C@@H](CCC(N)=O)C(=O)N[C@@H](CC(=O)O)C(=O)N[C@@H](CCCNC(=N)N)C(=O)N[C@@H](CC(N)=O)C(=O)N[C@@H](CCC(=O)O)C(=O)N[C@@H](CCCCN)C(=O)N[C@@H](CC(=O)O)C(=O)N[C@@H](CC(C)C)C(=O)N[C@@H](CC(C)C)C(=O)N[C@@H](CCC(=O)O)C(N)=O)[C@@H](C)CC)[C@@H](C)CC)[C@@H](C)O` [Fusonex] (Ac-SWETWEREIENYTKQIYKILEESQEQQDRNEKDLLE-NH2), the IC50 against HIV-1 gp160HXB was determined as 1.2 ± 0.2 nM. Besides, the “inhibiting activity compared with T-20 (cell fusion induced by HIV-1 gp160HXB)” value against HIV-1 gp160HXB (at the same concentration, FIG. 5) is recorded as “better inhibiting activity than T-20”. For the same compound, the “stability compared with T-20 (melting curve)” value at gp41 N-peptide (FIG. 4) is “higher than that of T-20; also recorded: more stable than T-20”. Also, the 50% melting temperature on gp41 N-peptide (heating 20° C. to 95° C.) is 70 °C.

As to enfuvirtide, the “toxicity against the spinal cord” value in the series with HIV was “no toxicity against the spinal cord”.
